Test results published in patent US20250215030A1, “STAT MODULATORS AND USES THEREOF” (Recludix Pharma, Inc., priority 2022, published 2025).

Tests used:
pSTAT6 (pY641-STAT6) = target: T1, pSTAT6 (pY641-STAT6) (Homo sapiens, UniProt P42226); assay: MSD-pSTAT-PBMC Assay (pSTAT6, IL-4 stimulated); assay type: cell-based; conditions: compound 3 hrs, then 1 ng/mL IL-4 for 10 min
T1 construct: host or cells: cryopreserved PBMC
T1 sequence (P42226 1-847): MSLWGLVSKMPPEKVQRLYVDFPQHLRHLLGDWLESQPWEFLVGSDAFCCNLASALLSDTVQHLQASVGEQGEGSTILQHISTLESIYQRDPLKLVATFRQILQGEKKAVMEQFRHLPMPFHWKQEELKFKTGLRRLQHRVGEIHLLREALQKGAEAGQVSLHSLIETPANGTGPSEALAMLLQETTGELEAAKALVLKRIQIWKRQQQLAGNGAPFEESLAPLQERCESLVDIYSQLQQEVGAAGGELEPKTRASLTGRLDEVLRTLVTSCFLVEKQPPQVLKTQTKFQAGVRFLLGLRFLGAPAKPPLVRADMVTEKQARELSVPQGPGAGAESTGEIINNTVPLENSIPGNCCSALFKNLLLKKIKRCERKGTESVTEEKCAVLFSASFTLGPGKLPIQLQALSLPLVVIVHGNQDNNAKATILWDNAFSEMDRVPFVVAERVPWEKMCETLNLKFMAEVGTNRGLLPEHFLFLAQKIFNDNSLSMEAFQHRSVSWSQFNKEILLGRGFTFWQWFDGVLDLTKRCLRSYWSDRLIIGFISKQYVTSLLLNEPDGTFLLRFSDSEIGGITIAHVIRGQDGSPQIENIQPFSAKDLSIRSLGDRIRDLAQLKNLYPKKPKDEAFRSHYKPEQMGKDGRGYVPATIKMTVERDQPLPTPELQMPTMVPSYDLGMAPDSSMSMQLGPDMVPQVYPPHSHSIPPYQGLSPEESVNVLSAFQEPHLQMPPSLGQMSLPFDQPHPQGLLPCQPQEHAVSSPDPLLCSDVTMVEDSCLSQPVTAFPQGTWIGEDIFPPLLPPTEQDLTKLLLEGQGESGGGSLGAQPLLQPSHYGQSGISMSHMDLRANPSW
Procedure, shortened: (§1)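 Human PBMCs (50,000 cells/well for STAT3, 25,000 for STAT6) treated with compound 3 h, then stimulated 10 min with 10 ng/mL IL-6 or 1 ng/mL IL-4. Lysate pSTAT3 (pY705) or pSTAT6 (pY641) measured by MSD sandwich electrochemiluminescence. Signal minus unstimulated, normalized to DMSO; IC50 by variable-slope nonlinear regression.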

pSTAT3 (pY705-STAT3) = target: T2, pSTAT3 (pY705-STAT3) (Homo sapiens, UniProt P40763); assay: MSD-pSTAT-PBMC Assay (pSTAT3, IL-6 stimulated); assay type: cell-based; conditions: PBMC, compound 3 hrs, then 10 ng/mL IL-6 for 10 min; MSD pY705-STAT3; read-out: pSTAT3
T2 construct: host or cells: cryopreserved PBMC
T2 sequence (P40763 whole entry): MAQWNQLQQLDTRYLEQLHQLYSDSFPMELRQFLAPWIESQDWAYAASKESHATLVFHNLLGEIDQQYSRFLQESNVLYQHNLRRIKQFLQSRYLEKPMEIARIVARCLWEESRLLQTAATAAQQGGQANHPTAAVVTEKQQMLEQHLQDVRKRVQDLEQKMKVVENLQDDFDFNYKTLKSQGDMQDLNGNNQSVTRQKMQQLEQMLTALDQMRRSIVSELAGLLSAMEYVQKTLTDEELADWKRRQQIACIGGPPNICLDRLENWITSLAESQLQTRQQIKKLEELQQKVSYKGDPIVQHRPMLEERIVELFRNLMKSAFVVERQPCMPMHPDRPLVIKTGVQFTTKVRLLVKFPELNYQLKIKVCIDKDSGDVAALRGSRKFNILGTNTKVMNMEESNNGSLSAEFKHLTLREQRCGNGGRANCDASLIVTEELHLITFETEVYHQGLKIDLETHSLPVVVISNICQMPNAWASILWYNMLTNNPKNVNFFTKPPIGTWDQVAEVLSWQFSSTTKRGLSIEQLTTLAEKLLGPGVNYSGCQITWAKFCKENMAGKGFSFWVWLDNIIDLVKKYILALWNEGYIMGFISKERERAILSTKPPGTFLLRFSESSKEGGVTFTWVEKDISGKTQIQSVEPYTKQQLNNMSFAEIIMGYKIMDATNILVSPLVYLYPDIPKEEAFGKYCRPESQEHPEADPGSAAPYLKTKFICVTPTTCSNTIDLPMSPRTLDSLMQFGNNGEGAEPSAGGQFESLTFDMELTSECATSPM
Procedure, shortened: as §1

Compound | IC50 (pSTAT6 (pY641-STAT6)) [µM] | IC50 (pSTAT3 (pY705-STAT3)) [µM]
COCC(C)(C)OC(=O)OCOP(=O)(OCOC(=O)OC(C)(C)COC)C(F)(F)c1ccc2sc(C(=O)N[C@H]3C[C@H]4C[C@H]4C[C@H]4CC[C@@H](C(=O)N5CC(c6cccnc6)C5)N4C3=O)cc2c1 [Compound 168, (((difluoro(2-(((3S,6S,7aR, 8aS,9aR)-5-oxo-3-(3-(pyridin-3-yl)azetidine-1-carbonyl)decahydro-1H-cyclopropa[d]pyrrolo[1,2-a]azocin-6-yl)carbamoyl)benzo[b]thiophen-5-yl)methyl)phosphoryl)bis(oxy)) bis(methylene) bis(1-methoxy-2-methylpropan-2-yl) bis(carbonate)] | > 3 | < 0.1
COCCCOC(=O)OCOP(=O)(OCOC(=O)OCCCOC)C(F)(F)c1ccc2sc(C(=O)N[C@H]3C[C@@H]4C[C@@H]4C[C@H]4CC[C@@H](C(=O)N5CC(C(=O)N6CCOCC6)C5)N4C3=O)cc2c1 [Compound 169, (((difluoro(2-(((3S,6S,7aS, 8aR,9aR)-3-(3-(morpholine-4-carbonyl)azetidine-1-carbonyl)-5-oxodecahydro-1H-cyclopropa [d]pyrrolo[1,2-a]azocin-6-yl)carbamoyl)benzo[b]thiophen-5-yl)methyl)phosphoryl)bis(oxy)) bis(methylene) bis(3-methoxypropyl) bis(carbonate)] | > 3 | 0.1 to 1
CC(C)(C)OC(=O)OCOP(=O)(OCOC(=O)OC(C)(C)C)C(F)(F)c1ccc2sc(C(=O)N[C@H]3C[C@@H]4C[C@@H]4C[C@H]4CC[C@@H](C(=O)N5CC(C(=O)N6CCOCC6)C5)N4C3=O)cc2c1 [Compound 170, di-tert-butyl ((((difluoro(2-(((3S,6S,7aS, 8aR,9aR)-3-(3-(morpholine-4-carbonyl)azetidine-1-carbonyl)-5-oxodecahydro-1H-cyclopropa[d]pyrrolo[1,2-a]azocin-6-yl)carbamoyl)benzo[b]thiophen-5-yl)methyl)phosphoryl)bis(oxy))bis(methylene)) bis(carbonate)] | > 3 | 1 to 3
CC(C)(C)C(=O)SCCOP(=O)(OCCSC(=O)C(C)(C)C)C(F)(F)c1ccc2sc(C(=O)N[C@H]3C[C@@H]4C[C@@H]4C[C@H]4CC[C@@H](C(=O)N5CC(C(=O)N6CCOCC6)C5)N4C3=O)cc2c1 [Compound 171, S,S′-((((difluoro(2-(((3S,6S,7aS, 8aR,9aR)-3-(3-(morpholine-4-carbonyl)azetidine-1-carbonyl)-5-oxodecahydro-1H-cyclopropa[d]pyrrolo[1,2-a]azocin-6-yl)carbamoyl)benzo[b]thiophen-5-yl)methyl)phosphoryl)bis(oxy))bis(ethane-2,1-diyl)) bis(2,2-dimethyl-propanethioate)] | > 3 | < 0.1
COCCOC(=O)OCOP(=O)(OCOC(=O)OCCOC)C(F)(F)c1ccc2sc(C(=O)N[C@H]3C[C@@H]4C[C@@H]4C[C@H]4CC[C@@H](C(=O)N5CC(C(=O)N6CCOCC6)C5)N4C3=O)cc2c1 [Compound 172, (((difluoro(2-(((3S,6S,7aS, 8aR,9aR)-3-(3-(morpholine-4-carbonyl)azetidine-1-carbonyl)-5-oxodecahydro-1H-cyclopropa [d]pyrrolo[1,2-a]azocin-6-yl)carbamoyl)benzo[b]thiophen-5-yl)methyl)phosphoryl)bis(oxy)) bis(methylene) bis(2-methoxyethyl) bis(carbonate)] | > 3 | 0.1 to 1
C[C@H](NP(=O)(Oc1ccccc1)C(F)(F)c1ccc2sc(C(=O)N[C@H]3C[C@@H]4C[C@@H]4C[C@H]4CC[C@@H](C(=O)N5CC(C(=O)N6CCOCC6)C5)N4C3=O)cc2c1)C(=O)OCc1ccccc1 (stereo partly drawn) [Compound 173, benzyl ((difluoro(2-(((3S,6S,7aS, 8aR,9aR)-3-(3-(morpholine-4-carbonyl)azetidine-1-carbonyl)-5-oxodecahydro-1H-cyclopropa[d]pyrrolo[1,2-a]azocin-6-yl)carbamoyl)benzo[b]thiophen-5-yl)methyl) (phenoxy)phosphoryl)-L-alaninate] | > 3 | 1 to 3

Further lines, results first:

IC50 (pSTAT6 (pY641-STAT6)) [µM] | IC50 (pSTAT3 (pY705-STAT3)) [µM] | Compound
> 3 | 0.1 to 1 | CC(C)(C)C(=O)OCOP(=O)(OCOC(=O)C(C)(C)C)C(F)(F)c1ccc2sc(C(=O)N[C@H]3C[C@@H]4C[C@@H]4C[C@H]4CC[C@@H](C(=O)Nc5ccc(-c6ccccc6)cc5)N4C3=O)cc2c1 [Compound 175, ((((2-(((3S,6S,7aS, 8aR,9aR)-3-([1,1′-biphenyl]-4-ylcarbamoyl)-5-oxodecahydro-1H-cyclopropa[d]pyrrolo[1,2-a]azocin-6-yl)carbamoyl)benzo[b]thiophen-5-yl)difluoro-methyl)phosphoryl)bis(oxy)) bis(methylene) bis(2,2-dimethyl-propanoate)]
> 3 | < 0.1 | CC(C)OC(=O)OCOP(=O)(OCOC(=O)OC(C)C)C(F)(F)c1ccc2sc(C(=O)N[C@H]3C[C@@H]4C[C@@H]4C[C@H]4CC[C@@H](C(=O)N5CC(C(=O)N6CCOCC6)C5)N4C3=O)cc2c1 [Compound 176, (((difluoro(2-(((3S,6S,7aS, 8aR,9aR)-3-(3-(morpholine-4-carbonyl)azetidine-1-carbonyl)-5-oxodecahydro-1H-cyclopropa[d]pyrrolo[1,2-a]azocin-6-yl)carbamoyl)benzo[b]thiophen-5-yl)methyl)phosphoryl)bis(oxy)) bis(methylene) diisopropyl bis(carbonate)]
> 3 | > 3 | CCOC(=O)CCCOP(=O)(OCCCC(=O)OCC)C(F)(F)c1ccc2sc(C(=O)N[C@H]3C[C@@H]4C[C@@H]4C[C@H]4CC[C@@H](C(=O)N5CC(C(=O)N6CCOCC6)C5)N4C3=O)cc2c1 [Compound 177, diethyl 4,4′-(((difluoro(2-(((3S,6S,7aS, 8aR,9aR)-3-(3-(morpholine-4-carbonyl)azetidine-1-carbonyl)-5-oxodecahydro-1H-cyclopropa[d]pyrrolo[1,2-a]azocin-6-yl)carbamoyl)benzo[b]thiophen-5-yl)methyl)phosphoryl)bis(oxy)) dibutyrate]
0.1 to 1 | < 0.1 | CCCC(=O)SCCOP(=O)(OCCSC(=O)CCC)C(F)(F)c1ccc2sc(C(=O)N[C@H]3C[C@@H]4C[C@@H]4C[C@H]4CC[C@@H](C(=O)N5CC(C(=O)N6CCOCC6)C5)N4C3=O)cc2c1 [Compound 178, S,S′-((((difluoro(2-(((3S,6S,7aS, 8aR,9aR)-3-(3-(morpholine-4-carbonyl)azetidine-1-carbonyl)-5-oxodecahydro-1H-cyclopropa[d]pyrrolo[1,2-a]azocin-6-yl)carbamoyl)benzo[b]thiophen-5-yl)methyl)phosphoryl)bis(oxy))bis(ethane-2,1-diyl)) dibutane-thioate]
> 3 | < 0.1 | CC(C)CC(=O)SCCOP(=O)(OCCSC(=O)CC(C)C)C(F)(F)c1ccc2sc(C(=O)N[C@H]3C[C@H]4C[C@H]4C[C@H]4CC[C@@H](C(=O)N5CC(n6ccnc6)C5)N4C3=O)cc2c1 [Compound 179, S,S′-(((((2-(((3S,6S,7aR, 8aS,9aR)-3-(3-(1H-imidazol-1-yl)azetidine-1-carbonyl)-5-oxodecahydro-1H-cyclopropa[d]pyrrolo[1,2-a]azocin-6-yl)carbamoyl)benzo[b]thiophen-5-yl)difluoromethyl)phosphoryl)bis(oxy))bis(ethane-2,1-diyl)) bis(3-methylbutane thioate)]
> 3 | < 0.1 | CC(C)(C)C(=O)SCCOP(=O)(OCCSC(=O)C(C)(C)C)C(F)(F)c1ccc2sc(C(=O)NC3CC4CC4CC4CCC(C(=O)N5CC(n6ccnc6)C5)N4C3=O)cc2c1 [Compound 180, S,S′-(((((2-(((3S,6S,7aR, 8aS,9aR)-3-(3-(1H-imidazol-1-yl)azetidine-1-carbonyl)-5-oxodecahydro-1H-cyclopropa[d]pyrrolo[1,2-a]azocin-6-yl)carbamoyl)benzo[b]thiophen-5-yl)difluoromethyl)phosphoryl)bis(oxy))bis(ethane-2,1-diyl)) bis(2,2-dimethyl-propanethioate)]
> 3 | < 0.1 | CC(C)(C)C(=O)SCCOP(=O)(OCCSC(=O)C(C)(C)C)C(F)(F)c1ccc2sc(C(=O)N[C@H]3C[C@@H]4C[C@@H]4C[C@H]4CC[C@@H](C(=O)N5CC(n6ccnc6)C5)N4C3=O)cc2c1 [Compound 181, S,S′-(((((2-(((3S,6S,7aS, 8aR,9aR)-3-(3-(1H-imidazol-1-yl)azetidine-1-carbonyl)-5-oxodecahydro-1H-cyclopropa[d]pyrrolo[1,2-a]azocin-6-yl)carbamoyl)benzo[b]thiophen-5-yl)difluoromethyl)phosphoryl)bis(oxy))bis(ethane-2,1-diyl)) bis(2,2-dimethyl-propanethioate)]
